Data on four compounds can be found in patent US8940800B2, “Pharmaceutical compositions with enhanced performance” (Bend Research, Inc., priority 2004, dated 2015).

Like-named read-outs stand apart in the source and are kept apart here.

Data set [1] is described as follows: In vivo test of oral powder for constitution in beagle dogs (Example 2). The settings on record: male, dog, plasma, Fed, 90 mgA Drug 1 oral OPC. The protocol: Dispersions 1 and 4 were used as oral powders for constitution (OPC) for evaluating the performance of the dispersions in in vivo tests using male beagle dogs. The OPC was dosed as a suspension in a solution containing 0.5 wt % hydroxypropyl cellulose METHOCEL® (from Dow Chemical Co.), and was prepared as follows. First, 7.5 g of METHOCEL® was weighed out and added slowly to approximately 490 ml of water at 90-100° C. to form a METHOCEL® suspension. After all the METHOCEL® was added, 1000 mL of cool/room temperature water was added to the suspension, which was then placed in an ice water bath. When all of the METHOCEL® had dissolved, 2.55 g of polyoxyethylene 20 sorbitan monooleate (TWEEN 80) were added and the mixture stirred until the TWEEN 80 had dissolved, thus forming a stock suspension solution.
To form the OPC, sufficient quantity of the test composition to result in a 90 mgA amount of Drug 1 was accurately weighed and placed into a mortar. (“mgA” refers to mg of active drug.) A 20 mL quantity of the stock suspension solution was added to the mortar and the test composition was mixed with a pestle. Additional METHOCEL® suspension was added gradually with mixing until a total of 400 mL of the stock suspension solution had been added to the mortar. The suspension was then transferred to a flask, thus forming the OPC. This process was repeated for each of Dispersions 1 and 4. […]

Data set [2] in a line: In vivo test of oral powder for constitution in beagle dogs (Example 10). The conditions noted are these: male, dog, plasma, Fed, 90 mgA Drug 1 oral OPC. As to the method:
Dispersion 17, consisting of 50:50 Drug 1:HPMCA Polymer 10, was dosed in male beagle dogs as an oral powder for constitution (OPC), by suspending the dispersion in a solution containing 0.5 wt % hydroxypropyl cellulose METHOCEL® (from Dow Chemical Co.), as follows. First, 7.5 g of METHOCEL® was weighed out and added slowly to approximately 490 ml of water at 90-100° C. to form a METHOCEL® suspension. After all the METHOCEL® was added, 1000 mL of cool/room temperature water was added to the suspension, which was then placed in an ice water bath. When all of the METHOCEL® had dissolved, 2.55 g of polyoxyethylene 20 sorbitan monooleate (TWEEN 80) were added and the mixture stirred until the TWEEN 80 had dissolved, thus forming a stock suspension solution.
To form the OPC, sufficient quantity of the test composition to result in a 90 mgA amount of Drug 1 was accurately weighed and placed into a mortar. A 20 mL quantity of the stock suspension solution was added to the mortar and the test composition was mixed with a pestle. Additional METHOCEL® suspension was added gradually with mixing until a total of 400 mL of the stock suspension solution had been added to the mortar. The suspension was then transferred to a flask, thus forming the OPC. In addition, an OPC containing 90 mgA of amorphous Drug 1 was prepared using the same procedure.
Six male beagle dogs were each dosed with the OPC. […]

Data set [3] can be described thus: In vitro membrane permeation test, Drug 6 (Example 7). The conditions noted are these: Drug 6, feed solution 0.5% NaTC/POPC, permeate 60 wt % decanol in decane. It counts as physicochemical. As to the method: Dispersion 19 (75:25 Drug 6:Polymer 17) was evaluated in vitro using the membrane permeation test described for Example 6, except that the permeate solution consisted of 60 wt % decanol in decane. The feed solution was made using MFD solution (0.5% NaTC/POPC). The concentration of Drug 6 in the feed solution would have been 500 μg/mL (354 μgA/mL), if all of the drug had dissolved.
As a control, crystalline Drug 6 alone was used. The concentration of drug added would have been 354 μgA/mL Drug 6, if all of the drug had dissolved.
The maximum flux of drug across the membrane (in units of μg/cm^2-min) was determined from the data by estimating the tangent to the concentration versus time curve at time 0.

Data set [4] can be described thus: Microcentrifuge dissolution test in PBS with NaTC/POPC, Drug 6 (Examples 8 and 12). The conditions noted are these: 37° C., 0 to 90 minutes. It counts as physicochemical. The protocol:
Dispersion 19 was also evaluated in a microcentrifuge dissolution test using the following procedures. For this test, 1.7 mg of Dispersion 19 and 1.27 mg of Crystalline Drug 6 was added to respective microcentrifuge tubes. The tubes were placed in a 37° C. temperature-controlled bath, and 1.8 mL phosphate buffered saline (PBS) at pH 6.5 and 290 mOsm/kg containing 7.3 mM sodium taurocholic acid and 1.4 mM of 1-palmitoyl-2-oleyl-sn-glycero-3-phosphocholine was added to each tube. The concentration of Drug 6 would have been […] if all of the drug had dissolved. The samples were quickly mixed using a vortex mixer for about 60 seconds. The samples were centrifuged at 13,000 G at 37° C. for 1 minute. The resulting supernatant solutions were then sampled and diluted 1:6 (by volume) with methanol and then analyzed by high-performance liquid chromatography (HPLC). The contents of the tubes were mixed on the vortex mixer and allowed to stand undisturbed at 37° C. until the next sample was taken. Samples were collected at 4, 10, 20, 40, 90, and 1200 minutes.
The concentrations of Drug 6 obtained in these samples were used to determine the values of the maximum drug concentration between 0 and 90 minutes (MDC90) and the area under the curve from 0 to 90 minutes (AUC90).
A physical mixture of 75 wt % Drug 6 and 25 wt % HPMCA Polymer 16 was evaluated using the microcentrifuge dissolution test described in Example 8. The concentration of Drug 6 would have been 500 μgA/mL if all of the drug had dissolved. A control consisting of a physical mixture of 75 wt % Drug 6 and 25 wt % HPMC (Dow E3 Prem LV) was tested in the same test.

Data set [5] can be described thus: physchem. The conditions noted are these: pH 6, aqueous buffer.
The conditions of data set [6]: not told.
Setting [7] is: Table 16, PBS pH 6.5 with 7.3 mM NaTC/1.4 mM POPC.
[8] abbreviates: Table 20, PBS pH 6.5 with NaTC/POPC.

In the case of `CCOC(=O)N1c2ccc(C(F)(F)F)cc2[C@@H](N(Cc2cc(C(F)(F)F)cc(C(F)(F)F)c2)C(=O)OC)C[C@H]1CC` [Amorphous Drug 1, [2R,4S]4-[(3,5-bis-trifluoromethyl-benzyl)-methoxycarbonyl-amino]-2-ethyl-6-trifluoromethyl-3,4-dihydro-2H-quinoline-1-carboxylic acid ethyl ester], the Cmax in data set [1] and in data set [2] was 190 ± 55 ng/mL throughout. For the same compound, the AUC(0-t) in data set [1] (read-out: AUC(0-12)) and in data set [2] (read-out: AUC(0-12)) was 640 ± 240 ng·h/mL throughout.
Take `CCCc1nn(C)c2c(=O)[nH]c(-c3cc(S(=O)(=O)N4CCN(C)CC4)ccc3OCC)nc12.O=C(O)CC(O)(CC(=O)O)C(=O)O` [Crystalline Drug 6, 1-[4-ethoxy-3-(6,7-dihydro-1-methyl-7-oxo-3-propyl-1H-pyrazolo[4,3-d]pyrimidin-5-yl)phenylsulphonyl]-4-methylpiperazine citrate salt]: in data set [3], the “Maximum Drug Flux” value amounted to 3.8 μg/cm^2-min. Also, in data set [4] (setting [7]), the AUC90 was 7,000 min * μgA/mL and the MDC,90 amounted to 98 μgA/mL. Besides, in data set [4] (setting [8]), the AUC90 is given as 7,000 min * μgA/mL and the MDC,90 amounted to 98 μgA/mL.
On to `CCCc1nn(C)c2c(=O)[nH]c(-c3cc(S(=O)(=O)N4CCN(C)CC4)ccc3OCC)nc12.O=C(O)CC(O)(CC(=O)O)C(=O)O` [Drug 6, 1-[4-ethoxy-3-(6,7-dihydro-1-methyl-7-oxo-3-propyl-1H-pyrazolo[4,3-d]pyrimidin-5-yl)phenylsulphonyl]-4-methylpiperazine citrate salt], for which, in data set [5], the solubility is roughly 20 µg/mL.
For “[2R,4S]4-[(3,5-bis-trifluoromethyl-benzyl)-methoxycarbonyl-amino]-2-ethyl-6-trifluoromethyl-3,4-dihydro-2H-quinoline-1-carboxylic acid ethyl ester [Crystalline Drug 1]”, in data set [6], the “Maximum Drug Flux” value came out at 0.16 μg/cm^2-min.

What is called Cmax is the highest concentration seen after dosing. As a reminder, the solubility is the concentration that dissolves in the medium under given conditions.
